For experiment [1], the target named is Mast/stem cell growth factor receptor Kit (Homo sapiens, UniProt P10721). The experiment is described as follows: Inhibition of wild type KIT (unknown origin).
The target in experiment [2] is Fibroblast growth factor receptor 4 (Mus musculus, UniProt Q03142). Nature of the experiment: Inhibition of FGFR4 in mouse BaF3 cells. The format is cell-based.
Experiment [3] can be described thus: Antiproliferative activity against mouse 32D cells expressing FLT3-ITD assessed as cell growth inhibition. The format is functional.
Experiment [4] in a line: Antiproliferative activity against mouse 32D cells expressing FLT3-D835Y assessed as cell growth inhibition. The format is functional.
A short description of experiment [5]: Antiproliferative activity against mouse 32D cells expressing FLT3-ITD-F691L assessed as cell growth inhibition. The format is functional.
The test system of experiment [6] is BaF3. The experiment is described as follows: Antiproliferative activity against mouse BaF3 cells harboring FLT3 F691L mutant assessed as cell growth inhibition. The format is functional, cell-based.
Another experiment concerns MOLM-14. Nature of the experiment: Antiproliferative activity against human MOLM-14 cells harboring FLT3 F691L mutant assessed as cell growth inhibition. The format is functional, cell-based.
Experiment [7] has as its system BaF3. The experiment is described as follows: Antiproliferative activity against mouse BaF3 cells harboring FLT3 D835Y mutant assessed as cell growth inhibition. The format is functional, cell-based.
Experiment [8] has as its system BaF3. The experiment is described as follows: cells. As to conditions: Mus musculus.
Description: Antiproliferative activity against mouse BaF3 cells harboring TRKA F589L mutant assessed as cell growth inhibition

Consider five compounds from ChEMBL document CHEMBL5236591, “Targeting Gatekeeper Mutations for Kinase Drug Discovery” (J Med Chem, 2022).

The structures appear in SMILES notation.

The term IC50 denotes the midpoint of a concentration-inhibition curve. By GI50 is commonly meant the concentration at which growth is held to half of that of the control.

Chain of Mast/stem cell growth factor receptor Kit (P10721 whole entry): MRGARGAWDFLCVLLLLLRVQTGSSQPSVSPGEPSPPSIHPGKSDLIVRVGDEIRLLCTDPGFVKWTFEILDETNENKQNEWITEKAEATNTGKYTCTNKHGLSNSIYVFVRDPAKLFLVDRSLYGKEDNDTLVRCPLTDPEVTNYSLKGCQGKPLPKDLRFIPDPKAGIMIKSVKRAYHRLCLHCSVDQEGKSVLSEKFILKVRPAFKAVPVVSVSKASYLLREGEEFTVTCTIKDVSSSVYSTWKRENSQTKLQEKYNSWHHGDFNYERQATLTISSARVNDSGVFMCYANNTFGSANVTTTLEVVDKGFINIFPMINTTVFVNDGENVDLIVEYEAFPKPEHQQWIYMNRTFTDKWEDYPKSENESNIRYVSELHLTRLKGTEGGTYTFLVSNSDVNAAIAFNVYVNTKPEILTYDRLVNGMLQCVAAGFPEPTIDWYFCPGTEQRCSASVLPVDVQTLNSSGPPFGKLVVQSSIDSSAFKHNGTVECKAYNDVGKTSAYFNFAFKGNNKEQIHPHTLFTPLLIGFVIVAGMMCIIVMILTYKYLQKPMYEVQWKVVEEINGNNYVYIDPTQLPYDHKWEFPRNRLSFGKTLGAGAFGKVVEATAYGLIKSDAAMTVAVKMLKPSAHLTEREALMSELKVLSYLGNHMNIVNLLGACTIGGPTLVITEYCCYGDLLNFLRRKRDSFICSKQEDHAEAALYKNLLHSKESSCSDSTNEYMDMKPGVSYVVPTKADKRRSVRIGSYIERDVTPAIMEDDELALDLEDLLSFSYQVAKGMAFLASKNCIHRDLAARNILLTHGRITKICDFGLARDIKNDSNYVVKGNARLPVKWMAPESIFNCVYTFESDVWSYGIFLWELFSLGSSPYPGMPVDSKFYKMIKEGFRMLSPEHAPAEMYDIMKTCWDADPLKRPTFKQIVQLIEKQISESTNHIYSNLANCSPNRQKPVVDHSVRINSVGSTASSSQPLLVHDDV
Chain of Fibroblast growth factor receptor 4 (Q03142 whole entry): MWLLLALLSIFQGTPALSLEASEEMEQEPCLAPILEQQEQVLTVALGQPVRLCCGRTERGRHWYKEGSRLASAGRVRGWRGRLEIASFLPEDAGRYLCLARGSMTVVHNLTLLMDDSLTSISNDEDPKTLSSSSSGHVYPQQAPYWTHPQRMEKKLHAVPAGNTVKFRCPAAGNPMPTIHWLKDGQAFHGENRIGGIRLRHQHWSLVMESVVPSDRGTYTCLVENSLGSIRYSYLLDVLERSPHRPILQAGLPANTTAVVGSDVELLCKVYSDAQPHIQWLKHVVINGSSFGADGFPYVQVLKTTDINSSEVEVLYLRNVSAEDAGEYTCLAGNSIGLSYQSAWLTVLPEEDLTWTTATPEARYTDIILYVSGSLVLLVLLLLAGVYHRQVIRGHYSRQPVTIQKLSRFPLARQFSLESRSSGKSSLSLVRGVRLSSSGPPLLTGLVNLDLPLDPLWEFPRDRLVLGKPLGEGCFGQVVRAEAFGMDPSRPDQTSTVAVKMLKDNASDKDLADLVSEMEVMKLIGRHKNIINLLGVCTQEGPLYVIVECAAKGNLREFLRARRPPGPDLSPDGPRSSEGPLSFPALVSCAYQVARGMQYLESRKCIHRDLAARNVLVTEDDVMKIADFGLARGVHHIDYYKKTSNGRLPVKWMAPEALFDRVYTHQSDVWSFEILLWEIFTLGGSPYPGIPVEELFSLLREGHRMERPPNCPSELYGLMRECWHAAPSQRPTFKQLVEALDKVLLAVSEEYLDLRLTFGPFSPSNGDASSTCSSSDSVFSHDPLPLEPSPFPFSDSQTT

`COCCOc1cc(F)c2c(Nc3ccc(NC(=O)Cn4cc(C(C)C)nn4)cc3)ncnc2c1` showed a 50% inhibitory concentration (IC50) in experiment [1] of 3 nM.

In the case of `C=CC(=O)Nc1cc(N2CCC(N3CCOCC3)CC2)cc(F)c1Nc1n[nH]c2ccc(O[C@H](C)c3c(Cl)cncc3Cl)cc12`, in experiment [2], the IC50 came out at 3.5 nM.

With `CCCNc1nc(Nc2ccc(C#N)cc2)ncc1C#CCCCNC(=O)[C@H](C)N(C)C(=O)/C=C/CN(C)C` [FF-10101], the GI50 in experiment [3] stood at 1.9 nM; in experiment [4], 0.81 nM; in experiment [5] it was 10 nM.

On to `FC(F)(F)c1ccc(CNc2ccc(Cc3c[nH]c4ncc(Cl)cc34)cn2)cn1` [PEXIDARTINIB], for which the results for the IC50 in the experiment on BaF3 [6], with MOLM-14 and in the experiment with BaF3 [7] were 97 nM, 670 nM and 4700 nM, respectively.

In the experiment on BaF3 [8], `C[C@@H]1CCc2ncc(F)cc2[C@H]2CCCN2c2ccn3ncc(c3n2)C(=O)N1` [SELITRECTINIB] returned a 50% inhibitory concentration (IC50) of 27.8 nM.
